Data: patent US7932270B2 (Cytokinetics, Inc., priority 2006, dated 2011)
pIC50: −log10 of the molar value.

Biological target: T1, chicken gizzard smooth muscle myosin subfragment-1 chemically crosslinked to cardiac or skeletal actin (Gallus gallus, UniProt P10587)
T1 construct: chicken gizzard smooth muscle myosin subfragment-1; from tissue; host or cells: chicken gizzard
Assay: Smooth muscle myosin ATPase dose response assay (pyruvate kinase/horseradish peroxidase/pyruvate oxidase-coupled, amplex red fluorescence)
Type: biochemical
Settings: read-out: IC50 Arithmetic Mean
In short: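 Amplex red fluorescence (480 nm excitation, 615 nm emission) tracked ATP hydrolysis by smooth muscle S1 crosslinked to actin with carbodiimide/N-hydroxysuccinimide. Reactions contained 0.15 mM ATP and 100 mM KCl at pH 7.00, 22° C. IC50 came from a four-parameter logistic fit.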

T1 sequence (P02607 2-151): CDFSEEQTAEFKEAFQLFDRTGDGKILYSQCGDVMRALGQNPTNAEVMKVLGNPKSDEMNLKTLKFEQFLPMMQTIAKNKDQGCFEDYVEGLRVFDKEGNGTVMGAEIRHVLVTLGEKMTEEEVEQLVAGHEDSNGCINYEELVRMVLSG
T1 sequence (P10587 84-789): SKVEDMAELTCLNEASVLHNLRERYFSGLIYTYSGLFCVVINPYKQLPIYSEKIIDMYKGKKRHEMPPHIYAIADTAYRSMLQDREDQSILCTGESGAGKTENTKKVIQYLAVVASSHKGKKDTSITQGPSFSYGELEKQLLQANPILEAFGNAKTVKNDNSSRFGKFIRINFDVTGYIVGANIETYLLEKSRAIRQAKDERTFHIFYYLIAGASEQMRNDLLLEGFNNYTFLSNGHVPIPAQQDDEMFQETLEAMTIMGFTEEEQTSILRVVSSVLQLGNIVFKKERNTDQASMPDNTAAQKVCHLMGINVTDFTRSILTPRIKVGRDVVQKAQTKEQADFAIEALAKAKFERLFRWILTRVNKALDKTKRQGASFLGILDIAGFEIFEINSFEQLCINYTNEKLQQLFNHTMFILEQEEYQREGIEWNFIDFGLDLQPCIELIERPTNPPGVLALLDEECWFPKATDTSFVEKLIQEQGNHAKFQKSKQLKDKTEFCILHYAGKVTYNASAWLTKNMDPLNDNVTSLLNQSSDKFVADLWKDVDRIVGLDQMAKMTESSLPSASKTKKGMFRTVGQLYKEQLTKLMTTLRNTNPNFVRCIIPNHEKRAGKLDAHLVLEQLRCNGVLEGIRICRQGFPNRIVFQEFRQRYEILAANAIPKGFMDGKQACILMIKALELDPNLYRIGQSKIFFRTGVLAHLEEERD

| SMILES | pIC50 |
| --- | --- |
| N#Cc1ccccc1-c1ccc(C(=O)NC[C@@H]2CCCNC2)c(NCCc2cccc(F)c2)n1 [N-[((3R)(3-piperidyl))methyl](6-(2-cyanophenyl)-2-{[2-(3-fluorophenyl)ethyl]amino}(3-pyridyl))carboxamide] | 5.67 |
| C[C@@H](CNC(=O)c1ccc(-c2ccccc2C#N)nc1NCCc1cccc(F)c1)NS(C)(=O)=O [N-{(2S)-2-[(methylsulfonyl)amino]propyl}(6-(2-cyanophenyl)-2-{[2-(3-fluorophenyl)ethyl]amino}(3-pyridyl))carboxamide] | 5.92 |
| N#Cc1ccccc1-c1ccc(C(=O)NCc2ccc(Cl)nc2)c(NCCc2cccc(F)c2)n1 [N-[(6-chloro(3-pyridyl))methyl](6-(2-cyanophenyl)-2-{[2-(3-fluorophenyl)ethyl]amino}(3-pyridyl))carboxamide] | 5.75 |
| O=C(NCc1cccnc1)c1ccc(-c2nccs2)nc1NCCc1ccccn1 [{2-[(2-(2-pyridyl)ethyl)amino]-6-(1,3-thiazol-2-yl)(3-pyridyl)}-N-(3-pyridylmethyl)carboxamide] | 5.06 |
| CC(C)(C)OC(=O)NCCn1ccc(CNC(=O)c2ccc(-c3ccccc3C#N)nc2NCCc2cccc(F)c2)n1 [N-[(1-{2-[(tert-butoxy)carbonylamino]ethyl}pyrazol-3-yl)methyl](6-(2-cyanophenyl)-2-{[2-(3-fluorophenyl)ethyl]amino}(3-pyridyl))carboxamide] | 5.56 |
| Cn1cc(-c2ccc(C(=O)NC[C@H]3CCCN3C(=O)CCCO)c(NCCc3cccc(F)c3)n2)cn1 [N-{[(2R)-1-(4-hydroxybutanoyl)pyrrolidin-2-yl]methyl}(2-{[2-(3-fluorophenyl)ethyl]amino}-6-(1-methylpyrazol-4-yl)(3-pyridyl))carboxamide] | 5.84 |
| N#Cc1ccccc1-c1ccc(C(=O)NC(CCN)C(N)=O)c(NCCc2cccc(F)c2)n1 (centres unmarked) [N-(3-amino-1-carbamoylpropyl)(6-(2-cyanophenyl)-2-{[2-(3-fluorophenyl)ethyl]amino}(3-pyridyl))carboxamide] | 5.72 |
| O=C(O)c1ccc(-c2ccc(C(=O)NCc3cccnc3)c(NCCc3ccccn3)n2)cc1 [4-{6-[(2-(2-pyridyl)ethyl)amino]-5-[N-(3-pyridylmethyl)carbamoyl]-2-pyridyl}benzoic acid] | 4.74 |
| Cn1cc(-c2ccc(C(=O)NCC3CNCC(=O)N3)c(NCCc3cccc(F)c3)n2)cn1 (centres unmarked) [(2-{[2-(3-fluorophenyl)ethyl]amino}-6-(1-methylpyrazol-4-yl)(3-pyridyl))-N-[(6-oxopiperazin-2-yl)methyl]carboxamide] | 5.91 |
| CC(C)(CNC(=O)c1ccc(-c2ccccc2C#N)nc1NCCc1cccc(F)c1)NS(C)(=O)=O [(6-(2-cyanophenyl)-2-{[2-(3-fluorophenyl)ethyl]amino}(3-pyridyl))-N-{2-methyl-2-[(methylsulfonyl)amino]propyl}carboxamide] | 5.83 |
| N#Cc1ccccc1-c1ccc(C(=O)NC[C@H]2CCCN2C(=O)CCCN)c(NCCC2CCCCO2)n1 (some centres unmarked) | 5.69 |
| N#Cc1ccccc1-c1ccc(C(=O)NCCN2C(=O)CC[C@@H]2CN)c(NCCc2cccc(F)c2)n1 [N-{2-[(5R)-5-(aminomethyl)-2-oxopyrrolidinyl]ethyl}(6-(2-cyanophenyl)-2-{[2-(3-fluorophenyl)ethyl]amino}(3-pyridyl))carboxamide] | 4.71 |
| N#Cc1ccccc1-c1ccc(C(=O)NCC(=O)NCCO)c(NCCc2cccc(F)c2)n1 [2-[(6-(2-cyanophenyl)-2-{[2-(3-fluorophenyl)ethyl]amino}(3-pyridyl))carbonylamino]-N-(2-hydroxyethyl)acetamide] | 5.68 |
| N#Cc1ccccc1-c1ccc(C(=O)NC[C@@H]2CCCCN2)c(NCCc2cccc(F)c2)n1 [N-[((2S)(2-piperidyl))methyl](6-(2-cyanophenyl)-2-{[2-(3-fluorophenyl)ethyl]amino}(3-pyridyl))carboxamide] | 5.99 |

Compounds with a higher pIC50, results first:

| pIC50 | SMILES |
| --- | --- |
| 7.14 | N#Cc1ccccc1-c1ccc(C(=O)NCc2cccnc2Cl)c(NCCc2cccc(F)c2)n1 [N-[(2-chloro(3-pyridyl))methyl](6-(2-cyanophenyl)-2-{[2-(3-fluorophenyl)ethyl]amino}(3-pyridyl))carboxamide] |
| 7.06 | COc1ncccc1CNC(=O)c1ccc(-c2ccccc2C#N)nc1NCCc1cccc(F)c1 [(6-(2-cyanophenyl)-2-{[2-(3-fluorophenyl)ethyl]amino}(3-pyridyl))-N-[(2-methoxy(3-pyridyl))methyl]carboxamide] |
| 6.25 | NCC(=O)N1CC[C@@H]1CNC(=O)c1ccc(-c2cn[nH]c2)nc1NCCc1cccc(F)c1 [N-{[(2R)-1-(2-aminoacetyl)azetidin-2-yl]methyl}(2-{[2-(3-fluorophenyl)ethyl]amino}-6-pyrazol-4-yl(3-pyridyl))carboxamide] |
| 6.18 | CC(C)(N)CNC(=O)c1ccc(-c2ccccc2C#N)nc1NCCc1cccc(F)c1 [N-(2-amino-2-methylpropyl)(6-(2-cyanophenyl)-2-{[2-(3-fluorophenyl)ethyl]amino}(3-pyridyl))carboxamide] |
| 7.28 | O=Cc1ccc(-c2ccc(C(=O)NCc3cccnc3)c(NCCc3cccc(F)c3)n2)s1 [(2-{[2-(3-fluorophenyl)ethyl]amino}-6-(5-formyl(2-thienyl))(3-pyridyl))-N-(3-pyridylmethyl)carboxamide] |
| 6.56 | N#Cc1ccccc1-c1ccc(C(=O)NC[C@H]2CCN2C(=O)[C@@H](N)CCCN)c(NCCc2cccc(F)c2)n1 [N-{[(2R)-1-((2S)-2,5-diaminopentanoyl)azetidin-2-yl]methyl}(6-(2-cyanophenyl)-2-{[2-(3-fluorophenyl)ethyl]amino}(3-pyridyl))carboxamide] |
| 6.27 | O=C(NCc1cccnc1)c1ccc(-c2c(F)cccc2Cl)nc1NCCc1cccc(F)c1 [(6-(2-chloro-6-fluorophenyl)-2-{[2-(3-fluorophenyl)ethyl]amino}(3-pyridyl))-N-(3-pyridylmethyl)carboxamide] |
| 7.18 | NCc1ncccc1CNC(=O)c1cc(F)c(-c2ccccn2)nc1NCCc1cccc(F)c1 [N-{[2-(aminomethyl)(3-pyridyl)]methyl}(5-fluoro-2-{[2-(3-fluorophenyl)ethyl]amino}-6-(2-pyridyl)(3-pyridyl))carboxamide] |
| 6.04 | N#Cc1ccccc1-c1ccc(C(=O)NCc2cccnc2)c(NCCC2CCCO2)n1 (centres unmarked) [{6-(2-cyanophenyl)-2-[(2-oxolan-2-ylethyl)amino](3-pyridyl)}-N-(3-pyridylmethyl)carboxamide] |
| 7.10 | O=C(NCc1cccnc1)c1ccc(-c2ccccc2)nc1NCCc1cc(F)ccc1F [(2-{[2-(2,5-difluorophenyl)ethyl]amino}-6-phenyl(3-pyridyl))-N-(3-pyridylmethyl)carboxamide] |
| 6.22 | N#Cc1ccccc1-c1ccc(C(=O)NCc2cccc(C(F)(F)F)n2)c(NCCc2cccc(F)c2)n1 [(6-(2-cyanophenyl)-2-{[2-(3-fluorophenyl)ethyl]amino}(3-pyridyl))-N-{[6-(trifluoromethyl)(2-pyridyl)]methyl}carboxamide] |
| 6.04 | N#Cc1ccccc1-c1ccc(C(=O)NC[C@@H]2CCC(=O)N2CCN)c(NCCc2cccc(F)c2)n1 [N-{[(2S)-1-(2-aminoethyl)-5-oxopyrrolidin-2-yl]methyl}(6-(2-cyanophenyl)-2-{[2-(3-fluorophenyl)ethyl]amino}(3-pyridyl))carboxamide] |
